Columns and labels:
[1] = molecular target: T1, human recombinant PLA2 group II enzyme (Homo sapiens, UniProt P14555); assay: Test on the inhibitory effect against phospholipase A2 (PLA2), fluorescent phospholipid substrate; assay type: biochemical; settings: dose 1 × 10^−6 M; 10-pyrene PA-monomethyl ester substrate, room temperature, 10 minutes; read-out: Percent inhibition: inhibition (%)
T1 sequence (P14555 21-144): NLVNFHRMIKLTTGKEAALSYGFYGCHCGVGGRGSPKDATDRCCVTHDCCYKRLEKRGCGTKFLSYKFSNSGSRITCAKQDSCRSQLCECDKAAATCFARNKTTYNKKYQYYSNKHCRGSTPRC
Protocol: Test on the inhibitory effect against phospholipase A2 (PLA2)
PLA2 activity was assayed with a fluorescent phospholipid analogue [1-palmitoyl-2-(10-pyrenyldecanoyl)-sn-glycero-3-monomethylphosphatidic acid(10-pyrene PA-monomethyl ester)] as a substrate, according to Radvanyi et al. (1989) with several modifications. Briefly, the reaction medium was prepared by sequential addition of 1160 μl of 50 mM Tris-HCl (pH 7.4) buffer containing 100 mM NaCl and 1 mM EDTA, 10 μl of 120 μM 10-pyrene PA-monomethyl ester in ethanol, 10 μl of drug sample in methanol and 10 μl of 1.2 μg/ml human recombinant PLA2 group II enzyme. The enzymatic reaction was then initiated with 10 μl of 0.84 M CaCl2. Following incubation at room temperature for 10 minutes, the reaction was terminated by addition of 25 μl of 1 M EDTA and 10 μl of 10 mg/ml β-cyclodextrin. Fluorescence measurements were carried out with a JASCO Corporation FP-777 spectrofluorometer. Excitation and emission wavelengths were 345 nm and 380 nm, respectively. All data are the average of at least duplicate determinations corrected for the spontaneous fluorescence of the reaction medium. Data were expressed as percent inhibition.
F. Radvanyi, L. Jordan, F. Russo-Marie and C. Bon: A sensitive and continuous fluorometric assay for phospholipase A2 using pyrene-labeled phospholipids in the presence of serum albumin. […]

Row | melting point [°C] | inhibition at 1 µM [1] [%] | SMILES
1 | 85 to 92 |  | CCCN(C(=O)[C@H](CCC(=O)O)NC(=O)c1cn(Cc2ccccc2Cl)c2ccccc12)[C@H](CC(N)=O)Cc1ccc2ccccc2c1
2 | 166 to 168 |  | CCCCc1ccc(C[C@@H](CC(N)=O)N(CCCC)C(=O)[C@H](CCCC(=O)O)NC(=O)c2cn(Cc3ccccc3Cl)c3ccccc23)cc1
3 | 77 to 82 |  | CCCCc1ccc(C[C@@H](CC(N)=O)N(CCCC)C(=O)[C@H](CCCC(=O)O)NC(=O)c2cn(Cc3ccccc3)c3ccccc23)cc1
4 | 83 to 87 |  | CCCCc1ccc(C[C@@H](CC(N)=O)N(CCC)C(=O)[C@H](CCCC(=O)O)NC(=O)c2cn(Cc3ccccc3Cl)c3ccccc23)cc1
5 | 82 to 88 |  | CCCCc1ccc(C[C@@H](CC(N)=O)N(CCC)C(=O)[C@H](CCCC(=O)O)NC(=O)c2cn(Cc3ccccc3)c3ccccc23)cc1
6 | 79 to 96 |  | CCCN(C(=O)[C@H](CCCC(=O)O)NC(=O)c1cn(Cc2ccccc2Cl)c2ccccc12)[C@H](CC(N)=O)Cc1ccc(C)cc1
7 | 83 to 92 |  | CCCN(C(=O)[C@H](CCCC(=O)O)NC(=O)c1cn(Cc2ccccc2)c2ccccc12)[C@H](CC(N)=O)Cc1ccc(C)cc1
8 | 104 to 110 |  | CCCCN(C(=O)[C@H](CCCC(=O)O)NC(=O)c1cn(Cc2ccccc2Cl)c2ccccc12)[C@H](CC(N)=O)Cc1ccc2ccccc2c1
9 | 90 to 96 |  | CCCCN(C(=O)[C@H](CCCC(=O)O)NC(=O)c1cn(Cc2ccccc2)c2ccccc12)[C@H](CC(N)=O)Cc1ccc2ccccc2c1
10 | 110 to 114 |  | CCN(C(=O)[C@H](CCCC(=O)O)NC(=O)c1cn(Cc2ccccc2Cl)c2ccccc12)[C@H](CC(N)=O)Cc1ccc2ccccc2c1
11 | 118 to 126 |  | CCN(C(=O)[C@H](CCCC(=O)O)NC(=O)c1cn(Cc2cccc3ccccc23)c2ccccc12)[C@H](CC(N)=O)Cc1ccc2ccccc2c1
12 | 110 to 112 |  | CCN(C(=O)[C@H](CCCC(=O)O)NC(=O)c1cn(Cc2ccccc2)c2ccccc12)[C@H](CC(N)=O)Cc1ccc2ccccc2c1
13 | 89 to 93 |  | CCCCCN(C(=O)[C@H](CCCC(=O)O)NC(=O)c1cn(Cc2ccccc2)c2ccccc12)[C@H](CC(N)=O)Cc1ccc2ccccc2c1
14 | 112 to 116 |  | CCCCCN(C(=O)[C@H](CCCC(=O)O)NC(=O)c1cn(Cc2cccc3ccccc23)c2ccccc12)[C@H](CC(N)=O)Cc1ccc2ccccc2c1
15 | 123 to 126 |  | CCCN(C(=O)[C@H](CCCC(=O)O)NC(=O)c1cn(Cc2cccc3ccccc23)c2ccccc12)[C@H](CC(N)=O)Cc1ccc2ccccc2c1
16 | 91 to 94 |  | CCCN(C(=O)[C@H](CCCC(=O)O)NC(=O)c1cn(Cc2ccccc2)c2ccccc12)[C@H](CC(N)=O)Cc1ccc2ccccc2c1
17 | 74 to 81 |  | CCCCCCCCCCCCC[C@@H](CC(N)=O)N(Cc1ccccn1)C(=O)[C@H](CCCC(=O)O)NC(=O)c1ccc2ccccc2n1.Cl.Cl
18 | 59 to 62 |  | CCCCCCCCCCCCC[C@@H](CC(N)=O)N(CCC)C(=O)[C@H](CCCC(=O)O)NC(=O)c1ccc2ccccc2n1.Cl
19 | 125 to 127 |  | CCCCCCCCC[C@@H](CC(N)=O)N(CCCCC)C(=O)[C@H](CCCC(=O)O)NC(=O)c1cn(Cc2ccccc2)c2ccccc12
20 | 127 to 129 |  | CCCCCC[C@@H](CC(N)=O)N(CCCCC)C(=O)[C@H](CCCC(=O)O)NC(=O)c1cn(Cc2ccccc2)c2ccccc12
21 | 124 to 127 |  | CCCCCC[C@@H](CC(N)=O)N(CCCC)C(=O)[C@H](CCCC(=O)O)NC(=O)c1cn(Cc2ccccc2)c2ccccc12
22 | 153 to 156 |  | CCCCCC[C@@H](CC(N)=O)N(CCCC)C(=O)[C@H](CCCC(=O)O)NC(=O)c1cn(Cc2ccccc2Cl)c2ccccc12

Row | melting point [°C] | inhibition at 1 µM [1] [%] | SMILES
23 | 106 to 109 |  | CCCCCC[C@@H](CC(N)=O)N(CCC)C(=O)[C@H](CCCC(=O)O)NC(=O)c1cn(Cc2cccc(Cl)c2)c2ccccc12
24 | 139 to 141 |  | CCCCCC[C@@H](CC(N)=O)N(CCC)C(=O)[C@H](CCCC(=O)O)NC(=O)c1cn(Cc2cccc3ccccc23)c2ccccc12
25 | 78 to 95 |  | CCCCCC[C@@H](CC(N)=O)N(CCC)C(=O)[C@H](CCCC(=O)O)NC(=O)c1cn(Cc2ccccn2)c2ccccc12
26 | 175 to 180 |  | CCCCCC[C@@H](CC(N)=O)N(CCC)C(=O)[C@H](CCCC(=O)O)NC(=O)c1cn(Cc2ccccc2Cl)c2ccccc12
27 | 95 to 98 |  | CCCC[C@@H](CC(N)=O)N(CCC)C(=O)[C@H](CCCC(=O)O)NC(=O)c1cn(Cc2ccccc2Cl)c2ccccc12
28 | 98 to 116 |  | CCCC[C@@H](CC(N)=O)N(CCC)C(=O)[C@H](CCCC(=O)O)NC(=O)c1cn(Cc2cccc3ccccc23)c2ccccc12
29 | 110 to 116 |  | CCCN(C(=O)[C@H](CCCC(=O)O)NC(=O)c1cn(Cc2ccccn2)c2ccccc12)[C@H](CC(N)=O)Cc1ccc2cc(CC)ccc2c1
30 | 105 to 116 |  | CCCN(C(=O)[C@H](CCCC(=O)O)NC(=O)c1cn(Cc2ccccc2)c2ccccc12)[C@H](CC(N)=O)Cc1ccc2cc(CC)ccc2c1
31 | 100 to 116 |  | CCCCN(C(=O)[C@H](CCCC(=O)O)NC(=O)c1cn(Cc2ccccc2)c2ccccc12)[C@H](CC(N)=O)Cc1ccc2cc(CC)ccc2c1
32 | 100 to 116 |  | CCCCN(C(=O)[C@H](CCCC(=O)O)NC(=O)c1cn(Cc2ccccc2Cl)c2ccccc12)[C@H](CC(N)=O)Cc1ccc2cc(CC)ccc2c1
33 | 155 to 160 |  | CCCCCCCCC[C@@H](CC(N)=O)N(CCC)C(=O)[C@H](CCCC(=O)O)NC(=O)c1cn(Cc2ccccc2)c2ccccc12
34 | 145 to 150 |  | CCCCCCCCC[C@@H](CC(N)=O)N(CCC)C(=O)[C@H](CCCC(=O)O)NC(=O)c1cn(Cc2ccccc2Cl)c2ccccc12
35 | 79 to 81 |  | CCCCCCCc1ccc(C[C@@H](CC(N)=O)N(CCCC)C(=O)[C@H](CCCC(=O)O)NC(=O)c2cn(Cc3ccccc3Cl)c3ccccc23)cc1
36 | 180 to 183 |  | CCCCCC[C@@H](CC(N)=O)N(CC)C(=O)[C@H](CCCC(=O)O)NC(=O)c1cn(Cc2ccccc2Cl)c2ccccc12
37 | 80 to 85 |  | CCCCCC[C@@H](CC(N)=O)N(CC)C(=O)[C@H](CCCC(=O)O)NC(=O)c1cn(Cc2ccccc2)c2ccccc12
38 | 105 to 110 |  | CCCC[C@@H](CC(N)=O)N(CCCC)C(=O)[C@H](CCCC(=O)O)NC(=O)c1cn(Cc2ccccc2Cl)c2ccccc12
39 | 105 to 113 |  | CCCC[C@@H](CC(N)=O)N(CCCC)C(=O)[C@H](CCCC(=O)O)NC(=O)c1cn(Cc2cccc3ccccc23)c2ccccc12
40 | 147 to 157 |  | CCCCCC[C@@H](CC(N)=O)N(CCC)C(=O)[C@H](CCCC(=O)O)NC(=O)c1cn(Cc2ccccc2)c2ccccc12
41 |  | 100 | NC(=O)C[C@H](Cc1ccc2ccccc2c1)OC(=O)[C@H](CCCC(=O)O)NC(=O)c1cc2ccccc2cc1Cc1ccccc1 [Example 24, (3S)-3-[(2S)-2-(3-Benzylnaphthalen-2-ylcarbonylamino)-5-carboxypentanoyl]oxy-4-(2-naphthyl)butanamide]
42 | 65 to 66 |  | CCCCCCCCCCCCC[C@@H](CC(N)=O)N(CC(C)C)C(=O)[C@H](CCCC(=O)O)NC(=O)c1ccc2ccccc2n1 [Example 149, (3S)-3-[N-Isobutyl-{(2S)-5-carboxy-2-(2-quinolylcarbonylamino)pentanoyl}amino]hexadecanamide]
43 | 86 to 90 |  | Cc1ccc(Cn2c(C(=O)N[C@@H](CCCC(=O)O)C(=O)O[C@H](CC(N)=O)Cc3ccc4ccccc4c3)cc3ccccc32)cc1 [Example 165, (3S)-3-[(2S)-5-Carboxy-2-[{1-(4-methylbenzyl)indol-2-ylcarbonyl}amino]pentanoyl]oxy-4-(2-naphthyl)butanamide]
44 | 147 to 157 |  | CN(CCC(N)=O)C(=O)[C@H](CCCC(=O)O)NC(=O)c1cc2ccccc2cc1Cc1ccccc1 [Example 180, 3-[N-Methyl-{(2S)-2-(3-benzylnaphthalen-2-ylcarbonyl)amino-5-carboxypentanoyl}amino]propanamide]

Row | SMILES | melting point [°C] | inhibition at 1 µM [1] [%]
45 | CC(C)(C)OC(=O)N[C@@H](CCCC(=O)OCc1ccccc1)C(=O)O[C@H](CC(N)=O)Cc1ccc(-c2ccccc2)cc1 [Example 40, (3S)-3-[(2S)-5-Benzyloxycarbonyl-2-(tert-butoxycarbonylamino)pentanoyl]oxy-4-(4-biphenylyl)butanamide] | 94 to 98 | 
